The test has as its system asthmatic patients. The experiment in a line: sGaw after dry powder inhalation, dose escalating single blind study (Examples 5 and 6). Conditions: 1 mg IBMX. Here is the method: To test this theory, asthmatic patients are enrolled in a dose escalating single blind study. On arrival to the clinic, subjects are allowed to rest for 20 minutes before baseline measurements of FEV1 (six recordings) and sGaw (five recordings) are made. Subjects receive a dry powder dispenser loaded with a dose of 2 mg theophylline or a dry powder carrier. […] After each inhalation, measurements of sGaw are made at 1, 3, 5, 10, 15, 20, 25, and 30 minutes.
On completion of the last recording, subjects inhale a 200 μg dose of salbutamol from a metered inhaler and a further measurement of sGaw is made after 15 minutes. Subjects are also monitored for coughing and are questioned about the taste of the drug.
Asthmatic patients are enrolled in a dose escalating single blind study. On arrival to the clinic, subjects are allowed to rest for 20 minutes before baseline measurements of FEV1 (six recordings) and sGaw (five recordings) are made. Subjects receive a dry powder dispenser loaded with a dose of 1 mg IBMX formulated as a dry powder or a dry powder carrier. […] After each inhalation, measurements of sGaw are made at 1, 3, 5, 10, 15, 20, 25, and 30 minutes.
On completion of the last recording, subjects inhale a 200 μg dose of salbutamol from a metered inhaler and a further measurement of sGaw mad after 15 minutes. Subjects are also be monitored for coughing and are questioned about the taste of the drug.

Consider `CC(C)Cn1c(=O)n(C)c(=O)c2[nH]cnc21` [IBMX, 3-isobutyl-1-methylxanthine], for which the “increase in sGaw compared with 200 μg salbutamol” value is on record as “comparable with that produced by salbutamol”; the “sGaw above the baseline measurement after 30 minutes” value is listed as 20%; the “time until sGaw baseline is reached” value is “one and a half”.

(Values after patent publication US20190231785A1, “PHOSPHODIESTERASE INHIBITOR TREATMENT” (Cyrano Therapeutics, Inc., priority 2012, published 2019).)
